What is called IC50 is the point on the concentration scale where inhibition reaches its midpoint.

Molecules are shown by their SMILES.

This assay addresses T1, recombinant human ACSS2 (Homo sapiens, UniProt Q9NR19).
T1 construct: purchased Origene TP304260
Kind of assay: ACSS2 biochemical assay (Transcreener AMP assay). The note with it: in vitro biochemical TranScreener assay; mean±S.D., n≥3 (FIG. 1C). How it is done: ACSS2 enzyme activity was measured using the TRANSCREENER® TRF AMP/GMP assay (Bellbrook Labs). Recombinant ACSS2 was purchased from Origene. The assay was performed in white, opaque, low volume 384 well plates. Test compounds were diluted in 100% DMSO and then 100 nL of each dilution was transferred using the Janus MDT Nanohead to assay plates containing 3 μL ACSS2 (2.5 nM) in assay buffer (30 mM HEPES, pH 7.4, 140 mM NaCl, 2 mM MgCl2, 5 mM sodium acetate, 2 mM DTT, 0.005% Brij35). Three microliters of substrate mix containing 100 μM ATP and 10 μM coenzyme A was added to the plates followed by a 120 min incubation. The final concentrations of enzyme and substrates in the reaction mix was 1.25 nM ACSS2, 50 μM ATP, and 5 μM coenzyme A. After incubation, 3 μL of terbium conjugated AMP antibody and AMP tracer was added to the plates according to the methods described by BellBrook Labs. After an additional 30 min, the HTRF signal was measured using an Envision Plate reader. Data were normalized to % inhibition, where 100% inhibition is equal to the counts obtained in the absence of ACSS2, and 0% inhibition is equal to the counts obtained in the complete reaction including a DMSO control.
A robust biochemical screening assay was set up for testing compounds as potential ACSS2 inhibitors. […]

T1 sequence (Q9NR19 whole entry): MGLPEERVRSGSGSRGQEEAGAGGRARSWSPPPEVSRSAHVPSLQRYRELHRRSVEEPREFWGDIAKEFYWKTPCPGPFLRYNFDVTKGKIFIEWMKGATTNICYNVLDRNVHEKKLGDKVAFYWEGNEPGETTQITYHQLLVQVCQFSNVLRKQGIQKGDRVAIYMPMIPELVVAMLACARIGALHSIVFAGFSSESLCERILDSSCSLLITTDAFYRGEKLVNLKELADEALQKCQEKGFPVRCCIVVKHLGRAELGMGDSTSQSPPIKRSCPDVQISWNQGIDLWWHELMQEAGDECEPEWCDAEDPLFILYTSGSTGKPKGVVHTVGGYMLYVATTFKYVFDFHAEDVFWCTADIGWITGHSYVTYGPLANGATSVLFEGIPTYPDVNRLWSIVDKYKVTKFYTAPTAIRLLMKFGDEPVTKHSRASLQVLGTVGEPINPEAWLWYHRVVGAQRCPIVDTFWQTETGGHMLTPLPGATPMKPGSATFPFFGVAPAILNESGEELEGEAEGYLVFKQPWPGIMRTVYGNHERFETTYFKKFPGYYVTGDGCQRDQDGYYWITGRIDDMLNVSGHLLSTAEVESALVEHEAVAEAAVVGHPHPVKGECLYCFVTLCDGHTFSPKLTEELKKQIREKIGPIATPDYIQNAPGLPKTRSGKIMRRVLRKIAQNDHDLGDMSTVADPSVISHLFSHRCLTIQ

Consider `CCn1c(C(O)(c2ccccc2)c2ccccc2)nc2ccc(C(=O)NC[C@@H](C)O)cc21` [VY-3-135, (R)-1-ethyl-2-(hydroxydiphenylmethyl)-N-(2-hydroxypropyl)-1H-benzo[d]imidazole-6-carboxamide], for which the IC50 was determined as 44 ± 3.85 nM.

(Values after US12281084B2, “Acetyl-CoA synthetase 2 (ACSS2) inhibitors and methods using same” (The Wistar Institute, priority 2019, dated 2025).)
